# pIC50: −log10 of the molar value.
# System: HeLa
# Assay: Antiproliferative activity against human HeLa cells by [3H]thymidine incorporation
# Format: functional, cell-based
row,Compound,pIC50
1,CC1(C)CO[C@@]2(C1)O[C@H]1C[C@H]3[C@@H]4CC[C@H]5C[C@H](O)CC[C@]5(C)[C@H]4[C@@H](O)C[C@]3(C)[C@H]1[C@@]2(C)O,< 5.00
2,CC1(C)C[C@@]2(O[C@H]3C[C@H]4[C@@H]5CC[C@H]6C[C@H](O)CC[C@]6(C)[C@H]5[C@@H](O)C[C@]4(C)[C@H]3[C@]2(C)O)OC1(C)C,< 5.00
3,CC1(C)CO[C@]2(C1)O[C@H]1C[C@H]3[C@@H]4CC[C@H]5C[C@H](O)CC[C@]5(C)[C@H]4[C@@H](O)C[C@]3(C)[C@H]1[C@@]2(C)O,< 5.00
4,C[C@]12CC[C@@H](O)C[C@@H]1CC[C@@H]1[C@@H]2[C@@H](O)C[C@@]2(C)[C@H]1C[C@@H]1O[C@]3(CCCCO3)[C@](C)(O)[C@@H]12,< 5.00
5,CCC1(CC)CC[C@]2(O[C@H]3C[C@H]4[C@@H]5CC[C@H]6C[C@H](O)CC[C@]6(C)[C@H]5[C@@H](O)C[C@]4(C)[C@H]3[C@@]2(C)O)O1,< 5.00
6,C[C@H]1C[C@@]2(O[C@H]3C[C@H]4[C@@H]5CC[C@H]6C[C@H](O)CC[C@]6(C)[C@H]5[C@@H](O)C[C@]4(C)[C@H]3[C@@]2(C)O)OC1(C)C [HIPPURISTANOL],7.15

# Other lines, results leading:
row,pIC50,Compound
1,5.66,CC1(C)C[C@]2(O[C@H]3C[C@H]4[C@@H]5CC[C@H]6C[C@H](O)CC[C@]6(C)[C@H]5[C@@H](O)C[C@]4(C)[C@H]3[C@@]2(C)O)OC1(C)C
2,5.44,CCC1(CC)CC[C@@]2(O[C@H]3C[C@H]4[C@@H]5CC[C@H]6C[C@H](O)CC[C@]6(C)[C@H]5[C@@H](O)C[C@]4(C)[C@H]3[C@@]2(C)O)O1
3,5.80,C[C@]12CC[C@@H](O)C[C@@H]1CC[C@@H]1[C@@H]2[C@@H](O)C[C@@]2(C)[C@H]1C[C@@H]1O[C@@]3(CCCCO3)[C@](C)(O)[C@@H]12
4,6.22,CC1(C)CCC[C@@]2(O[C@H]3C[C@H]4[C@@H]5CC[C@H]6C[C@H](O)CC[C@]6(C)[C@H]5[C@@H](O)C[C@]4(C)[C@H]3[C@@]2(C)O)O1
5,5.31,CC1(C)CCC[C@]2(O[C@H]3C[C@H]4[C@@H]5CC[C@H]6C[C@H](O)CC[C@]6(C)[C@H]5[C@@H](O)C[C@]4(C)[C@H]3[C@@]2(C)O)O1
6,6.70,CC1(C)C[C@@]2(O[C@H]3C[C@H]4[C@@H]5CC[C@H]6C[C@H](O)CC[C@]6(C)[C@H]5[C@@H](O)C[C@]4(C)[C@H]3[C@@]2(C)O)OC1(C)C

# From ChEMBL document CHEMBL1157758, “Structural and stereochemical requirements of the spiroketal group of hippuristanol for antiproliferative activity” (Bioorg Med Chem Lett, 2010)
